Like-named read-outs stand apart in the source and are kept apart here.
System: 8XTBD luciferase reporter (YAP) in HEK293T cells
Test: YAP Reporter Assay
Type: cell-based
Details: Homo sapiens, HEK-293T
[1] = HEK293T cells stably transfected with 8XTBD luciferase reporter and pRLTK, 24-hr incubation, top concentration 3 μM, read-out: Firefly Luciferase IC50
[2] = […], 24-hr incubation, top concentration 3 μM, read-out: Firefly Luciferase IC50

Compound	IC50 [1] [µM]	further results
CN(C#N)C(C)(C)c1nnc(-c2ccccc2Nc2ccc(C(F)(F)F)cc2)o1 [Compound 158, N-methyl-N-(2-(5-(2-((4-(trifluoromethyl)phenyl)amino)phenyl)-1,3,4-oxadiazol-2-yl)propan-2-yl)cyanamide]	< 0.1	
FC(F)(F)c1ccc(Nc2ccccc2-c2nnc(-c3cnco3)o2)cc1 [Compound 37, 2-(5-(oxazol-5-yl)-1,3,4-oxadiazol-2-yl)-N-(4-(trifluoromethyl)phenyl)aniline]	0.1 to 1	
FC(F)(F)c1ccc(Nc2ccc(Br)cc2-c2nnc(C3CC3)o2)cc1 [Compound 204, 4-bromo-2-(5-cyclopropyl-1,3,4-oxadiazol-2-yl)-N-(4-(trifluoromethyl)phenyl)aniline]	0.1 to 1	
C#CC(C)Oc1nnc(-c2ccccc2Nc2ccc(C(F)(F)F)cc2)o1 (stereo not drawn) [Compound 69, 2-(5-(but-3-yn-2-yloxy)-1,3,4-oxadiazol-2-yl)-N-(4-(trifluoromethyl)phenyl)aniline]	< 0.1	
Nc1nnc(-c2ccccc2Nc2ccc(C(F)(F)F)cc2)o1 [Compound 4, 5-(2-((4-(trifluoromethyl)phenyl)amino)phenyl)-1,3,4-oxadiazol-2-amine]	0.1 to 1	
CN(C#N)Cc1nnc(-c2ccccc2Nc2ccc(C(F)(F)F)cc2)o1 [Compound 168, N-methyl-N-((5-(2-((4-(trifluoromethyl)phenyl)amino)phenyl)-1,3,4-oxadiazol-2-yl)methyl)cyanamide]	< 0.1	
O=C1N[C@H](c2nnc(-c3ccccc3Nc3ccc(C(F)(F)F)cc3)o2)CO1 [Compound 78, (S)-4-(5-(2-((4-(trifluoromethyl)phenyl)amino)phenyl)-1,3,4-oxadiazol-2-yl)oxazolidin-2-one]		IC50 (24 h, read-out: Firefly Luciferase IC50 (μM)): 0.1 to 1 µM
O=C(NO)c1nnc(-c2ccccc2Nc2ccc(C(F)(F)F)cc2)o1 [Compound 14, N-hydroxy-5-(2-((4-(trifluoromethyl)phenyl)amino)phenyl)-1,3,4-oxadiazole-2-carboxamide]	< 0.1	
CNC1(c2nnc(-c3ccccc3Nc3ccc(C(F)(F)F)cc3)o2)CC1 [Compound 153, 2-(5-(1-(methylamino)cyclopropyl)-1,3,4-oxadiazol-2-yl)-N-(4-(trifluoromethyl)phenyl)aniline]	0.1 to 1	
CN(CCO)c1nnc(-c2ccccc2Nc2ccc(C(F)(F)F)cc2)o1 [Compound 19, 2-(methyl(5-(2-((4-(trifluoromethyl)phenyl)amino)phenyl)-1,3,4-oxadiazol-2-yl)amino)ethan-1-ol]	0.1 to 1	
[N-]=[N+]=NCc1nnc(-c2ccccc2Nc2ccc(C(F)(F)F)cc2)o1 [Compound 31, 2-[5-(azidomethyl)-1,3,4-oxadiazol-2-yl]-N-[4-(trifluoromethyl)phenyl]aniline]	0.1 to 1	
CSc1nnc(-c2ccccc2Nc2ccc(C(F)(F)F)cc2)o1 [Compound 72, 2-(5-(methylthio)-1,3,4-oxadiazol-2-yl)-N-(4-(trifluoromethyl)phenyl)aniline]	0.1 to 1	
CCC(C)(O)c1nnc(-c2ccccc2Nc2ccc(C(F)(F)F)cc2)o1 (stereo not drawn) [Compound 135, 2-(5-(2-((4-(trifluoromethyl)phenyl)amino)phenyl)-1,3,4-oxadiazol-2-yl)butan-2-ol]	< 0.1	
CON(C)C(=O)C(C)(C)c1nnc(-c2ccccc2Nc2ccc(C(F)(F)F)cc2)o1 [Compound 87, N-methoxy-N,2-dimethyl-2-(5-(2-((4-(trifluoromethyl)phenyl)amino)phenyl)-1,3,4-oxadiazol-2-yl)propanamide]	< 0.1	
C[C@]1(c2nnc(-c3ccccc3Nc3ccc(C(F)(F)F)cc3)o2)CCNC1=O [Compound 76, (R)-3-methyl-3-(5-(2-((4-(trifluoromethyl)phenyl)amino)phenyl)-1,3,4-oxadiazol-2-yl)pyrrolidin-2-one]	< 0.1	
CN(C)c1nnc(-c2ccccc2Nc2ccc(C(F)(F)F)cc2)o1 [Compound 6, N,N-dimethyl-5-(2-((4-(trifluoromethyl)phenyl)amino)phenyl)-1,3,4-oxadiazol-2-amine]	1 to 5	
C#CCCNC(=O)c1nnc(-c2ccccc2Nc2ccc(C(F)(F)F)cc2)o1 [Compound 115, N-(but-3-yn-1-yl)-5-(2-((4-(trifluoromethyl)phenyl)amino)phenyl)-1,3,4-oxadiazole-2-carboxamide]	< 0.1	
OC(c1nnc(-c2ccccc2Nc2ccc(C(F)(F)F)cc2)o1)C(F)(F)F (stereo not drawn) [Compound 51, 2,2,2-trifluoro-1-(5-(2-((4-(trifluoromethyl)phenyl)amino)phenyl)-1,3,4-oxadiazol-2-yl)ethanol]	< 0.1	
FC(F)(F)c1ccc(Nc2ccccc2-c2nnc(C3CCNC3)o2)cc1 (stereo not drawn) [Compound 175, 2-(5-(pyrrolidin-3-yl)-1,3,4-oxadiazol-2-yl)-N-(4-(trifluoromethyl)phenyl)aniline]	0.1 to 1	
CN(Cc1nnc(-c2ccccc2Nc2ccc(C(F)(F)F)cc2)o1)C(=O)OC(C)(C)C [Compound 167, Tert-Butyl Methyl((5-(2-((4-(trifluoromethyl)phenyl)amino)phenyl)-1,3,4-oxadiazol-2-yl)methyl)carbamate]	1 to 5	

Compound	IC50 [1] [µM]	further results
CCOC(=O)CNc1nnc(-c2ccccc2Nc2ccc(C(F)(F)F)cc2)o1 [Compound 9, ethyl (5-(2-((4-(trifluoromethyl)phenyl)amino)phenyl)-1,3,4-oxadiazol-2-yl)glycinate]	1 to 5	
OC1(c2nnc(-c3ccccc3Nc3ccc(C(F)(F)F)cc3)o2)CC1 [Compound 44, 1-(5-(2-((4-(trifluoromethyl)phenyl)amino)phenyl)-1,3,4-oxadiazol-2-yl)cyclopropanol]	< 0.1	
CCOC(=O)CN(C)c1nnc(-c2ccccc2Nc2ccc(C(F)(F)F)cc2)o1 [Compound 11, ethyl N-methyl-N-(5-(2-((4-(trifluoromethyl)phenyl)amino)phenyl)-1,3,4-oxadiazol-2-yl)glycinate]	0.1 to 1	
CC(CO)NC(=O)c1nnc(-c2ccccc2Nc2ccc(C(F)(F)F)cc2)o1 (stereo not drawn) [Compound 189, N-(1-hydroxypropan-2-yl)-5-(2-((4-(trifluoromethyl)phenyl)amino)phenyl)-1,3,4-oxadiazole-2-carboxamide]	0.1 to 1	
FC(F)(F)c1ccc(Nc2ccccc2-c2nnc(C3CO3)o2)cc1 (stereo not drawn) [Compound 122, 2-(5-(oxiran-2-yl)-1,3,4-oxadiazol-2-yl)-N-(4-(trifluoromethyl)phenyl)aniline]	< 0.1	
OC1(c2nnc(-c3ccccc3Nc3ccc(C(F)(F)F)cc3)o2)CCOC1 (stereo not drawn) [Compound 56, 3-(5-(2-((4-(trifluoromethyl)phenyl)amino)phenyl)-1,3,4-oxadiazol-2-yl)tetra hydrofuran-3-ol]	< 0.1	
N#CC1(c2nnc(-c3ccccc3Nc3ccc(C(F)(F)F)cc3)o2)CC1 [Compound 184, 1-(5-(2-((4-(trifluoromethyl)phenyl)amino)phenyl)-1,3,4-oxadiazol-2-yl)cyclopropane-1-carbonitrile]	< 0.1	
FC(F)(F)c1ccc(Nc2ccccc2-c2nnc(OC/C=C/Br)o2)cc1 [Compound 82, (E)-2-(5-((3-bromoallyl)oxy)-1,3,4-oxadiazol-2-yl)-N-(4-(trifluoromethyl)phenyl)aniline]	0.1 to 1	
CCN(C#N)Cc1nnc(-c2ccccc2Nc2ccc(C(F)(F)F)cc2)o1 [Compound 102, N-ethyl-N-((5-(2-((4-(trifluoromethyl)phenyl)amino)phenyl)-1,3,4-oxadiazol-2-yl)methyl)cyanamide]	< 0.1	
OC(c1nnc(-c2ccccc2Nc2ccc(C(F)(F)F)cc2)o1)C(F)F (stereo not drawn) [Compound 60, 2,2-difluoro-1-(5-(2-((4-(trifluoromethyl)phenyl)amino)phenyl)-1,3,4-oxadiazol-2-yl)ethanol]	< 0.1	
CNC(=O)c1nnc(-c2ccccc2Nc2ccc(C(F)(F)F)cc2)o1 [Compound 198, N-methyl-5-(2-((4-(trifluoromethyl)phenyl)amino)phenyl)-1,3,4-oxadiazole-2-carboxamide]	< 0.1	
OC1(c2nnc(-c3ccccc3Nc3ccc(C(F)(F)F)cc3)o2)CCCC1 [Compound 52, 1-(5-(2-((4-(trifluoromethyl)phenyl)amino)phenyl)-1,3,4-oxadiazol-2-yl)cyclo pentanol]	< 0.1	
CC(Cc1nnc(-c2ccccc2Nc2ccc(C(F)(F)F)cc2)o1)N(C)C#N (stereo not drawn) [Compound 149, N-methyl-N-(1-(5-(2-((4-(trifluoromethyl)phenyl)amino)phenyl)-1,3,4-oxadiazol-2-yl)propan-2-yl)cyanamide]	< 0.1	
O=C1NC(c2nnc(-c3ccccc3Nc3ccc(C(F)(F)F)cc3)o2)CO1 (stereo not drawn) [Compound 17, 4-(5-(2-((4-(trifluoromethyl)phenyl)amino)phenyl)-1,3,4-oxadiazol-2-yl)oxazolidin-2-one]	< 0.1	
CN(C#N)CC1(c2nnc(-c3ccccc3Nc3ccc(C(F)(F)F)cc3)o2)CC1 [Compound 140, N-methyl-N-((1-(5-(2-((4-(trifluoromethyl)phenyl)amino)phenyl)-1,3,4-oxadiazol-2-yl)cyclopropyl)methyl)cyanamide]	< 0.1	
CC(=O)NC1(c2nnc(-c3ccccc3Nc3ccc(C(F)(F)F)cc3)o2)CC1 [Compound 59, N-(1-(5-(2-((4-(trifluoromethyl)phenyl)amino)phenyl)-1,3,4-oxadiazol-2-yl)cyclopropyl)acetamide]		IC50 [2]: 0.1 to 1 µM
CS(=O)(=O)Nc1nnc(-c2ccccc2Nc2ccc(C(F)(F)F)cc2)o1 [Compound 38, N-(5-(2-((4-(trifluoromethyl)phenyl)amino)phenyl)-1,3,4-oxadiazol-2-yl)methanesulfonamide]		IC50 [2]: 0.1 to 1 µM
O=C1NCCN1c1nnc(-c2ccccc2Nc2ccc(C(F)(F)F)cc2)o1 [Compound 34, 1-(5-(2-((4-(trifluoromethyl)phenyl)amino)phenyl)-1,3,4-oxadiazol-2-yl)imidazolidin-2-one]	0.1 to 1	
Cc1ocnc1-c1nnc(-c2ccccc2Nc2ccc(C(F)(F)F)cc2)o1 [Compound 35, 2-(5-(5-methyloxazol-4-yl)-1,3,4-oxadiazol-2-yl)-N-(4-(trifluoromethyl)phenyl) aniline]	0.1 to 1	

Source: patent US11661403B2, “Oxadiazole compounds” (Vivace Therapeutics, Inc., priority 2018, dated 2023)
